Reference: PubChem BioAssay (NCI)
Several values for one entry are separate records, joined by “and”; a condition that tells them apart may be missing. Equal values may be shown once.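 A five-concentration, 48-hour dose response in 96-well plates underlies each endpoint, interpolated linearly between surrounding concentrations. Abbreviation: GI50, concentration required for 50% inhibition of growth. The concentration for full growth arrest is given as TGI.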

Experiments:
Test in all cases: DTP human tumour cell line panel, 48 h
[1] = tested on: SK-OV-3 ovarian
[2] = tested on: SR leukemia
[3] = tested on: KM12 colon
[4] = tested on: SNB-78 CNS
[5] = tested on: M14 melanoma
[6] = tested on: CCRF-CEM leukemia
[7] = tested on: UO-31 renal
[8] = tested on: HOP-92 NSCLC
[9] = tested on: RXF 393 renal
[10] = tested on: SK-MEL-28 melanoma
[11] = tested on: SF-268 CNS
[12] = tested on: NCI-H460 lung
[13] = tested on: HL-60(TB) leukemia
[14] = tested on: TK-10 renal
[15] = tested on: K-562 leukemia
[16] = tested on: EKVX NSCLC
[17] = tested on: U251 CNS
[18] = tested on: NCI-H226 lung
[19] = tested on: HT29 colon
[20] = tested on: UACC-62 melanoma
[21] = tested on: SNB-19 CNS
[22] = tested on: HOP-62 NSCLC
[23] = tested on: OVCAR-5 ovarian
[24] = tested on: M19-MEL melanoma
[25] = tested on: NCI-H522 lung
[26] = tested on: DMS 273 small cell lung
[27] = tested on: A549 NSCLC
[28] = tested on: MOLT-4 leukemia
[29] = tested on: NCI-H23 lung
[30] = tested on: IGROV1 ovarian
[31] = tested on: A498 renal
[32] = tested on: LOX IMVI melanoma
[33] = tested on: SNB-75 CNS
[34] = tested on: SW-620 colon
[35] = tested on: HS 578T breast
[36] = tested on: SF-295 CNS
[37] = tested on: DU-145 prostate
[38] = tested on: UACC-257 melanoma
[39] = tested on: SK-MEL-2 melanoma
[40] = tested on: OVCAR-8 ovarian
[41] = tested on: MCF7 breast
[42] = tested on: HCC-2998 colon
[43] = tested on: ACHN renal
[44] = tested on: MDA-MB-231 breast
[45] = tested on: PC-3 prostate
[46] = tested on: BT-549 breast
[47] = tested on: MDA-MB-435
[48] = tested on: COLO 205 colon
[49] = tested on: RPMI-8226 leukemia
[50] = tested on: CAKI-1 renal
[51] = tested on: MDA-N
[52] = tested on: SN12C renal
[53] = tested on: SK-MEL-5 melanoma
[54] = tested on: NCI/ADR-RES ovarian
[55] = tested on: HCT-116 colon
[56] = tested on: 786-0 renal
[57] = tested on: MALME-3M melanoma
[58] = tested on: OVCAR-3 ovarian
[59] = tested on: SF-539 CNS
[60] = tested on: HCT-15 colon
[61] = tested on: OVCAR-4 ovarian
[62] = tested on: T-47D breast

N#CC1Sc2ccccc2-n2cccc21 (configuration not stated)
TGI [1]: > 100 µM | TGI [2]: > 100 µM | TGI [3]: > 100 µM | TGI [4]: > 100 µM | TGI [5]: > 100 µM | TGI [6]: > 100 µM | TGI [7]: 93.3 µM | TGI [8]: > 100 µM | TGI [9]: 67.3 µM | TGI [10]: > 100 µM | TGI [11]: 78.2 µM | TGI [12]: > 100 µM | TGI [13]: 61.6 µM | TGI [14]: > 100 µM | TGI [15]: 95.5 µM | TGI [16]: > 100 µM | TGI [17]: > 100 µM | TGI [18]: 87.6 µM | TGI [19]: > 100 µM | TGI [20]: 99.2 µM | TGI [21]: > 100 µM | TGI [22]: > 100 µM | TGI [23]: > 100 µM | TGI [24]: > 100 µM | TGI [25]: > 100 µM | TGI [26]: > 100 µM | TGI [27]: > 100 µM | TGI [28]: > 100 µM | TGI [29]: > 100 µM | TGI [30]: > 100 µM | TGI [31]: > 100 µM

O=C(O)c1cc2cc(OCc3ccccc3)ccc2[nH]1
TGI [1]: > 100 µM | TGI [32]: > 100 µM | TGI [2]: > 100 µM | TGI [3]: > 100 µM | GI50 [33]: 34.2 µM | TGI [33]: > 100 µM | TGI [34]: > 100 µM | GI50 [35]: > 85 µM | TGI [35]: 77.4 µM and > 100 µM | TGI [5]: > 100 µM | TGI [6]: > 100 µM | GI50 [7]: 1.92 µM | TGI [7]: > 100 µM | GI50 [8]: 20.7 µM | TGI [8]: 92.4 µM and > 100 µM | TGI [9]: > 100 µM | TGI [36]: > 100 µM | TGI [37]: > 100 µM | GI50 [10]: 8.32 µM | TGI [10]: 61.7 µM and > 100 µM | GI50 [38]: > 74 µM | TGI [38]: > 100 µM | GI50 [39]: > 100 µM | TGI [39]: > 100 µM | TGI [40]: > 100 µM | TGI [11]: > 100 µM | TGI [12]: > 100 µM | TGI [13]: > 100 µM | GI50 [41]: > 100 µM | TGI [41]: > 100 µM | TGI [42]: > 100 µM | TGI [14]: > 100 µM | TGI [43]: > 100 µM | TGI [15]: > 100 µM | TGI [44]: > 100 µM | TGI [16]: > 100 µM | TGI [45]: > 100 µM | TGI [17]: > 100 µM | GI50 [18]: > 100 µM | TGI [18]: 93.1 µM and > 100 µM | GI50 [46]: 59.1 µM | TGI [46]: > 100 µM | GI50 [19]: > 100 µM | TGI [19]: > 100 µM | TGI [47]: > 100 µM | TGI [48]: > 100 µM | TGI [20]: > 100 µM | GI50 [21]: > 100 µM | TGI [21]: > 100 µM | TGI [49]: > 100 µM | GI50 [50]: > 84.2 µM | TGI [50]: > 100 µM | TGI [51]: > 100 µM | TGI [52]: > 100 µM | TGI [22]: > 100 µM | TGI [23]: > 100 µM | TGI [53]: > 100 µM | TGI [54]: > 100 µM | TGI [55]: > 100 µM | TGI [56]: > 100 µM | GI50 [57]: 0.198 µM | TGI [57]: 0.762 µM and 1.56 µM | TGI [25]: > 100 µM | TGI [58]: > 100 µM | TGI [27]: > 100 µM | TGI [59]: > 100 µM | TGI [60]: > 100 µM | TGI [28]: > 100 µM | TGI [29]: > 100 µM | GI50 [61]: > 100 µM | TGI [61]: > 100 µM | TGI [62]: > 100 µM | GI50 [30]: 52.4 µM | TGI [30]: > 100 µM | GI50 [31]: 35.1 µM | TGI [31]: > 100 µM
